Data taken from patent US12384753B2, “17-beta-hydroxysteroid dehydrogenase type 13 inhibitors and methods of use thereof” (Enanta Pharmaceuticals, Inc., priority 2021, dated 2025).

Target: Recombinant human HSD17B13 (Homo sapiens (Human), UniProt Q7Z5P4)
Test: HSD17B13 rapid-fire mass spectrometry assay (RF/MS assay)
Format: biochemical
Conditions: inhibition of HSD17B13; LTB4 10 μM, NAD+ 0.5 mM, RT 3 h; IC50 ranges A-E
Outline: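 Product 12-oxo-LTB4 and substrate LTB4 quantified by RapidFire triple-quad MS in negative mode, giving percent conversion. Reaction: 80 nM recombinant hHSD17B13, 10 μM LTB4, 0.5 mM NAD+, compound up to 100 μM, pH 7.5, RT, 3 h. Variable-slope fit gave IC50; run in duplicate.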

Chain of Recombinant human HSD17B13 (Q7Z5P4 20-300): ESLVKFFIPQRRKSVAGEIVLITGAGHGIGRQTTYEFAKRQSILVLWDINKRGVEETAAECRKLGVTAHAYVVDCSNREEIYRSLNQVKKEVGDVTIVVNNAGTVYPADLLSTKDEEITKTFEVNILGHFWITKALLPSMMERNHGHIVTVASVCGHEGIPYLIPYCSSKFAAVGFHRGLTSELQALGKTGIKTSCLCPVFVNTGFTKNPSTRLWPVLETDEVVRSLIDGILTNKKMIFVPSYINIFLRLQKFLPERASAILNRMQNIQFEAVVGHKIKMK

| Compound | IC50 [nM] |
| --- | --- |
| COc1cc(C(=O)O)ccc1NS(=O)(=O)c1csc(N2CCCC(C(=O)c3ccccc3)C2)n1 (stereo not shown) [Example 286] | 500 to 1000 |
| O=C(O)c1ccc(NS(=O)(=O)c2ccc3ccc(S(=O)(=O)Nc4ccc(C(=O)O)cc4O)cc3c2)c(O)c1 [Example 171] | < 100 |
| O=S(=O)(O)c1ccc(NS(=O)(=O)c2cnc(-c3ccc(F)cc3)s2)cc1 [Example 118] | > 100000 |
| COc1cc(C(=O)O)c(F)cc1NS(=O)(=O)c1nc(-c2ccc(C3CCCCC3)cc2)sc1C [Example 665] | 100 to 500 |
| COc1cc(C(=O)O)c(F)cc1NS(=O)(=O)c1ccn(-c2ccc([C@H]3CC[C@@H](C(F)(F)F)CC3)cc2)n1 [Example 691] | 100 to 500 |
| COc1cc(C(=O)O)ccc1NS(=O)(=O)c1ccc(-c2ccc(C(F)(F)F)cc2)s1 [Example 178] | 100 to 500 |
| COc1cc(C(=O)O)c(F)cc1NS(=O)(=O)c1coc(-c2ccc([C@H]3CC[C@@H](C(F)(F)F)CC3)cc2C(F)(F)F)n1 [Example 678] | < 100 |
| COc1cc(C(=O)O)ccc1NS(=O)(=O)c1csc(C#Cc2ccccc2)n1 [Example 150] | 100 to 500 |
| CCCCC[C@H]1CC[C@H](c2ccc(-c3cccc(S(=O)(=O)Nc4ccc(C(=O)O)cc4OC)c3F)cc2)CC1 [Example 470] | 100 to 500 |
| CCc1cc(C2=CCC(C)(C)CC2)ccc1-c1nc(S(=O)(=O)Nc2cc(F)c(C(=O)O)cc2OC)cs1 [Example 563] | < 100 |
| COc1cc(C(=O)O)ccc1NS(=O)(=O)c1csc(-c2ccc(C3CCC(OC)CC3)cc2)n1 (stereo not shown) [Example 503] | 100 to 500 |
| CCCCOc1c(C2=CCC(C(C)C)CC2)ccc(-c2nc(S(=O)(=O)Nc3cc(F)c(C(=O)O)cc3OC)cs2)c1F (stereo not shown) [Example 585] | 100 to 500 |
| COc1cc(C(=O)O)ccc1NS(=O)(=O)C1CCN(c2ncccn2)CC1 [Example 318] | 1000 to 100000 |
| COc1cc(C(=O)O)c(F)cc1NS(=O)(=O)c1csc(-c2ccc(C3CCC(C)(C)CC3)c(F)c2F)n1 [Example 521] | 100 to 500 |
| COc1cc(C(=O)O)c(F)cc1NS(=O)(=O)c1coc(-c2ccc([C@H]3CC[C@@H](O)CC3)cc2)n1 [Example 623] | 100 to 500 |
| COc1cc(C(=O)O)ccc1NS(=O)(=O)c1csc(N2Cc3ccccc3C2)n1 [Example 255] | 1000 to 100000 |
| COc1cc(C(=O)O)ccc1NS(=O)(=O)c1csc(C#Cc2ccc(N(C)C)cc2)n1 [Example 210] | < 100 |
| COc1cc(C(=O)O)ccc1NS(=O)(=O)c1csc(-c2ccc(C)cc2)n1 [Example 97] | 100 to 500 |
| COc1cc(C(=O)O)c(F)cc1NS(=O)(=O)c1csc(-c2ccc(-c3cnoc3)cc2)n1 [Example 651] | 100 to 500 |
| COc1cc(C(=O)O)c(F)cc1NS(=O)(=O)c1ccc2nc(-c3ccc([C@H]4CC[C@H](C(F)(F)F)CC4)cc3)sc2c1 [Example 659] | 500 to 1000 |
| COc1cc(C(=O)O)c(F)cc1NS(=O)(=O)c1coc(-c2ccc([C@H]3CC[C@@H](C(C)C)CC3)cc2C(F)(F)F)n1 [Example 673] | 100 to 500 |
| COc1cc(C(=O)O)ccc1NS(=O)(=O)c1ccc(C2CCC(c3ccccc3)CC2)cc1F (stereo not shown) [Example 357] | 100 to 500 |
| COc1cc(C(=O)O)c(F)cc1NS(=O)(=O)c1csc(-c2ccc(C3=CCC(C)(C)CC3)c(OC(C)C)c2F)n1 [Example 564] | 100 to 500 |

| Compound | IC50 [nM] |
| --- | --- |
| COc1cc(C(=O)O)c(F)cc1NS(=O)(=O)c1csc(-c2ccc(-c3ccc(C45CC6C[C@H](C4)C[C@H](C6)C5)cc3)cc2OC)n1 [Example 744] | 100 to 500 |
| COc1cc(C(=O)O)c(F)cc1NS(=O)(=O)c1csc(-c2ccc(C3CCC(C)(C)CC3)cc2F)n1 [Example 511] | < 100 |
| COc1cc(C(=O)O)c(F)cc1NS(=O)(=O)c1csc(-c2ccc(C3=CCC(C)(C)CC3)c(CO)c2)n1 [Example 529] | 100 to 500 |
| COc1cc(C(=O)O)ccc1NS(=O)(=O)c1csc(N2CCOCC2)n1 [Example 166] | 1000 to 100000 |
| COc1cc(C(=O)O)c(F)cc1NS(=O)(=O)c1csc(-c2ccc(-c3ccccn3)cc2)n1 [Example 635] | 100 to 500 |
| COc1cc(C(=O)O)c(F)cc1NS(=O)(=O)c1csc(-c2ccc([C@H]3CC[C@@H](C(F)(F)F)CC3)c(F)c2C)n1 [Example 602] | < 100 |
| COc1cc(C(=O)O)c(F)cc1NS(=O)(=O)c1csc(-c2ccc(C3CCC(C(F)(F)F)CC3)c(OC(C)C)c2F)n1 (stereo not shown) [Example 811] | 100 to 500 |
| COc1cc(C(=O)O)c(OC)cc1NS(=O)(=O)c1csc(-c2ccc(C3CCC(C)(C)CC3)cc2C(F)(F)F)n1 [Example 680] | < 100 |
| COc1cc(C(=O)O)c(F)cc1NS(=O)(=O)c1csc(-c2ccc(C3=CCC(C)(C)CC3)cc2OC(F)(F)F)n1 [Example 542] | < 100 |
| COc1cc(C(=O)O)ccc1NS(=O)(=O)c1csc(-c2cccc3ccccc23)n1 [Example 151] | 500 to 1000 |
| COc1cc(C(=O)O)ccc1NS(=O)(=O)c1csc2ccccc12 [Example 136] | 500 to 1000 |
| COc1cc(C(=O)O)c(F)cc1NS(=O)(=O)c1coc(-c2ccc(C3=CCC4(CC3)OCCO4)cc2)n1 [Example 617] | < 100 |
| COc1cc(C(=O)O)ccc1NS(=O)(=O)c1ccc(-c2ccc(F)cc2)cc1F [Example 333] | 100 to 500 |
| O=C(O)C1CCCN(S(=O)(=O)c2cnc(-c3ccc(F)cc3)s2)C1 (stereo not shown) [Example 65] | > 100000 |
| C=C(c1ccc(-c2ncc(S(=O)(=O)Nc3ccc(C(=O)O)cc3OC)s2)cc1)C1CC1 [Example 450] | < 100 |
| COc1ccccc1C#Cc1nc(S(=O)(=O)Nc2cc(F)c(C(=O)O)cc2OC)cs1 [Example 243] | < 100 |
| COc1cc(C(=O)O)c(F)cc1NS(=O)(=O)c1csc(-c2ccc(-c3ccc4ncccc4c3)cc2)n1 [Example 639] | < 100 |
| COc1cc(C(=O)O)ccc1NS(=O)(=O)c1csc(C#Cc2ccc(C(N)=O)c(OC(F)(F)F)c2)n1 [Example 391] | 100 to 500 |
| COc1cc(C(=O)O)c(F)cc1NS(=O)(=O)c1csc(-c2ccc(C3CCC(C)(C)CC3)c(F)c2OC)n1 [Example 549] | 100 to 500 |
| O=C(O)c1ccc(NS(=O)(=O)c2csc(-c3ccccc3)n2)cc1 [Example 15] | 500 to 1000 |
| COc1cc(C(=O)O)c(F)cc1NS(=O)(=O)c1cnc(-c2ccc(C3=CCC(C)(C)CC3)cc2)s1 [Example 728] | < 100 |
| COc1cc(C(=O)O)ccc1N(C)S(=O)(=O)c1cnc(-c2ccc(F)cc2)s1 [Example 105] | 1000 to 100000 |
| Cc1nc(S(=O)(=O)Nc2ccc(C(=O)O)cc2)cs1 [Example 53] | 1000 to 100000 |

| Compound | IC50 [nM] |
| --- | --- |
| COc1cc(C(=O)O)ccc1NS(=O)(=O)c1csc(N2CCN(C(=O)OC(C)C)CC2)n1 [Example 347] | 1000 to 100000 |
| CCC[C@H]1CC[C@H](C2CC=C(c3nc(S(=O)(=O)Nc4ccc(C(=O)O)cc4OC)cs3)CC2)CC1 (stereo partly shown) [Example 373] | 100 to 500 |
| COc1cc(C(=O)O)ccc1NS(=O)(=O)c1csc(C#Cc2ccccc2F)n1 [Example 204] | < 100 |
| COc1cc(C(=O)O)ccc1NS(=O)(=O)c1ccc(-c2ccc(C3CCCCC3)cc2)c(F)c1 [Example 326, 4-((4′-cyclohexyl-2-fluoro-[1,1′-biphenyl])-4-sulfonamido)-3-methoxybenzoic acid] | 100 to 500 |
| COc1cc(C(=O)O)c(F)cc1NS(=O)(=O)c1csc(-c2ccc(C3CCC(C)(C)CC3)c(F)c2C(F)F)n1 [Example 583] | < 100 |
| COc1cc(C(=O)O)c(F)cc1NS(=O)(=O)c1csc(-c2cc(F)c(C3=CCC(C)(C)CC3)c(F)c2)n1 [Example 516] | 100 to 500 |
| CCC[C@H]1CC[C@H](C2CCC(c3nc(S(=O)(=O)Nc4ccc(C(=O)O)cc4OC)cs3)CC2)CC1 (stereo partly shown) [Example 504] | 100 to 500 |
| COc1cc(C(=O)O)ccc1NS(=O)(=O)c1cc(F)cc(-c2ccc(C3CCCCC3)cc2)c1 [Example 438] | < 100 |
| COc1cc(C(=O)O)ccc1NS(=O)(=O)c1csc(N2CCC(c3ccccc3)C2)n1 (stereo not shown) [Example 259] | 1000 to 100000 |
| COc1cc(C(=O)O)ccc1NS(=O)(=O)c1ccc2sc(-c3ccc(F)cc3)nc2c1 [Example 323] | 1000 to 100000 |
| COc1cc(C(=O)O)ccc1NS(=O)(=O)N1CCN(c2cccc(-c3ccccc3)c2)CC1 [Example 321] | 1000 to 100000 |
| O=C(O)c1ccc(NS(=O)(=O)c2cnc(-c3ccc(F)cc3)s2)c(OC(F)F)c1 [Example 49] | 1000 to 100000 |
| O=C(O)c1ccc2nc(NS(=O)(=O)c3cnc(-c4ccc(F)cc4)s3)oc2c1 [Example 93] | 1000 to 100000 |
| O=C(O)c1ccccc1NS(=O)(=O)c1cnc(-c2ccc(F)cc2)s1 [Example 16] | 1000 to 100000 |
| COc1cc(C(=O)O)ccc1NS(=O)(=O)c1cnc(-c2ccc(F)cc2)s1 [Example 23] | < 100 |
| COc1cc(C(=O)O)ccc1NS(=O)(=O)c1csc(CCc2ccccc2)n1 [Example 181] | 1000 to 100000 |
| COc1cc(C(=O)O)ccc1NS(=O)(=O)c1cc(-c2ccc(C3CCCCC3)cc2)ccc1F [Example 435] | 500 to 1000 |
| COc1cc(C(=O)O)ccc1NS(=O)(=O)c1csc(C#Cc2ccccc2OC(F)(F)F)n1 [Example 238] | < 100 |
| COc1cc(C(=O)O)c(F)cc1NS(=O)(=O)c1csc(-c2ccc([C@H]3CC[C@@H](C(C)C)CC3)c(OC)c2F)n1 [Example 802] | < 100 |
| COc1cc(C(=O)O)ccc1NS(=O)(=O)c1nc(-c2ccc(F)cc2)sc1-c1ccccc1 [Example 306] | 1000 to 100000 |
| COc1cc(C(=O)O)ccc1NS(=O)(=O)c1csc(-c2ccccc2O)n1 [Example 142] | 500 to 1000 |
